Data published in patent US6525001B1, “Substituted pyrimidine and pyridine herbicides” (Mid-American Commercialization Corporation, priority 1997, dated 2003).

Assays:
Type in all cases: in vivo
[1] = test system: duck salad (Heteranthera limosa); experiment: Test B flood test; settings: for Plant response rating, Ducksalad: Postemergence (flood test species)
In short: (§1)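 Read-out is a visual response score from 0 (no effect) to 10 (complete control), assigned by comparison with untreated controls. Treatment was applied at the 2-leaf stage, and plants stayed in the greenhouse for twelve to sixteen days before scoring.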

[2] = test system: bamyardgrass (Echinochloa crus-galli); experiment: Test B flood test; settings: for Plant response rating, Barnyardgrass: Postemergence (flood test species)
In short: as §1

[3] = test system: smallflower flatsedge (Cyperus difformis); experiment: Test B flood test; settings: for Plant response rating, S. Flatsedge: Postemergence (flood test species)
In short: as §1

rice (Oryza sativa) = experiment: Test B flood test; settings: for Plant response rating, Rice: Postemergence (flood test species)
In short: as §1

[4] = test system: cocklebur (Xanthium strumarium); experiment: Test B pre-/postemergence; set-up: key: 0 is no effect; 10 is complete control
In short: (§2)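 Compounds in a surfactant-containing, non-phytotoxic solvent blend are applied to freshly planted seed (preemergence) and, concurrently, to seedlings of 2 to 18 cm at 1–4 leaves (postemergence). Plants stay in the greenhouse twelve to sixteen days and are then scored visually from 0 (no effect) to 10 (complete control).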

rape (Brassica napus) = experiment: Test B pre-/postemergence; set-up: key: 0 is no effect; 10 is complete control
In short: as §2

[5] = test system: velvetleaf (Abutilon theophrasti); experiment: Test B pre-/postemergence; set-up: key: 0 is no effect; 10 is complete control
In short: as §2

[6] = test system: momingglory (Ipomoea hederacea); experiment: Test B pre-/postemergence; set-up: key: 0 is no effect; 10 is complete control
In short: as §2

[7] = test system: pigweed (Amaranthus retroflexus); experiment: Test B pre-/postemergence; set-up: key: 0 is no effect; 10 is complete control
In short: as §2

corn (Zea mays) = experiment: Test B pre-/postemergence; set-up: key: 0 is no effect; 10 is complete control
In short: as §2

[8] = test system: wheat (Triticum aestivum); experiment: Test B pre-/postemergence; set-up: key: 0 is no effect; 10 is complete control
In short: as §2

[9] = test system: sugar beet (Beta vulgaris); experiment: Test B pre-/postemergence; set-up: key: 0 is no effect; 10 is complete control
In short: as §2

[10] = test system: giant foxtail (Setaria faberii); experiment: Test B pre-/postemergence; set-up: key: 0 is no effect; 10 is complete control
In short: as §2

[11] = test system: broadleaf signalgrass (Brachiaria decumbens); experiment: Test B pre-/postemergence; set-up: key: 0 is no effect; 10 is complete control
In short: as §2

[12] = test system: bedstraw (Galium aparine); experiment: Test B pre-/postemergence; set-up: key: 0 is no effect; 10 is complete control
In short: as §2

[13] = Rate 62 g/ha, Postemergence (flood test)
[14] = Rate 125 g/ha, Postemergence section (flood test species)
[15] = Preemergence, Rate 62 g/ha, scale of 0 to 10

Cc1cnc(-n2ccc(C(F)(F)F)n2)nc1C(=O)c1cccc(C(F)(F)F)c1 [Compound 59]
6: Plant response rating, Ducksalad ([1]; Rate 250 g/ha) | Plant response rating, Rice (rice (Oryza sativa); Rate 500 g/ha) | Rape plant response rating (rape (Brassica napus); Rate 62 g/ha, Postemergence) | Velvetleaf plant response rating ([5]; Rate 62 g/ha, Postemergence) | Plant response rating, Morningglory [6, 15] | Plant response rating, Morningglory ([6]; Rate 125 g/ha, Preemergence) | Giant foxtail plant response rating ([10]; Rate 62 g/ha, Postemergence) | Giant foxtail plant response rating ([10]; Rate 125 g/ha, Postemergence) | Plant response rating, Bedstraw ([12]; Rate 125 g/ha, Preemergence) | Plant response rating, Bedstraw ([12]; Rate 250 g/ha, Preemergence)
2: Rice plant response rating (rice (Oryza sativa); [13]) | Plant response rating, Cocklebur ([4]; Rate 125 g/ha, Preemergence) | Plant response rating, Cocklebur ([4]; Rate 500 g/ha, Preemergence) | Corn plant response rating (corn (Zea mays); Rate 125 g/ha, Postemergence) | Wheat plant response rating ([8]; Rate 125 g/ha, Postemergence) | Plant response rating, Wheat ([8]; Rate 125 g/ha, Preemergence) | Plant response rating, Wheat ([8]; Rate 250 g/ha, Postemergence) | B. signalgrass plant response rating ([11]; Rate 62 g/ha, Postemergence) | B. signalgrass plant response rating ([11]; Rate 125 g/ha, Postemergence) | Plant response rating, B. signalgrass ([11]; Rate 250 g/ha, Postemergence)
7: Plant response rating, Ducksalad ([1]; Rate 500 g/ha) | S. Flatsedge plant response rating [3, 13] | S. Flatsedge plant response rating [3, 14] | Cocklebur plant response rating ([4]; Rate 125 g/ha, Postemergence) | Plant response rating, Cocklebur ([4]; Rate 250 g/ha, Postemergence) | Rape plant response rating (rape (Brassica napus); Rate 125 g/ha, Postemergence) | Plant response rating, Rape (rape (Brassica napus); Rate 125 g/ha, Preemergence) | Plant response rating, Rape (rape (Brassica napus); Rate 250 g/ha, Postemergence) | Plant response rating, Rape (rape (Brassica napus); Rate 250 g/ha, Preemergence) | Plant response rating, Rape (rape (Brassica napus); Rate 500 g/ha, Postemergence) | Plant response rating, Velvetleaf [5, 15] | Velvetleaf plant response rating ([5]; Rate 125 g/ha, Postemergence) | Plant response rating, Velvetleaf ([5]; Rate 125 g/ha, Preemergence) | Plant response rating, Velvetleaf ([5]; Rate 250 g/ha, Postemergence) | Morningglory plant response rating ([6]; Rate 62 g/ha, Postemergence) | B. signalgrass plant response rating ([11]; Rate 62 g/ha, Preemergence) | Bedstraw plant response rating ([12]; Rate 62 g/ha, Postemergence) | Bedstraw plant response rating ([12]; Rate 125 g/ha, Postemergence)
3: Ducksalad plant response rating [1, 13] | Barnyardgrass plant response rating [2, 13] | Rice plant response rating (rice (Oryza sativa); [14]) | Plant response rating, Corn (corn (Zea mays); Rate 250 g/ha, Postemergence) | Plant response rating, Corn (corn (Zea mays); Rate 500 g/ha, Preemergence) | Plant response rating, Wheat ([8]; Rate 250 g/ha, Preemergence) | Plant response rating, Wheat ([8]; Rate 500 g/ha, Postemergence) | Plant response rating, B. signalgrass ([11]; Rate 500 g/ha, Postemergence) | Plant response rating, Bedstraw [12, 15]
4: Ducksalad plant response rating [1, 14] | Barnyardgrass plant response rating [2, 14] | Plant response rating, Rice (rice (Oryza sativa); Rate 250 g/ha) | Cocklebur plant response rating ([4]; Rate 62 g/ha, Postemergence) | Plant response rating, Corn (corn (Zea mays); Rate 500 g/ha, Postemergence)
9: Plant response rating, S. Flatsedge ([3]; Rate 500 g/ha) | Plant response rating, Velvetleaf ([5]; Rate 250 g/ha, Preemergence) | Plant response rating, Redroot pigweed ([7]; Rate 500 g/ha, Postemergence) | Sugarbeets plant response rating ([9]; Rate 62 g/ha, Postemergence) | Sugarbeets plant response rating ([9]; Rate 125 g/ha, Postemergence) | Plant response rating, Sugarbeets ([9]; Rate 250 g/ha, Postemergence) | Plant response rating, Sugarbeets ([9]; Rate 500 g/ha, Postemergence) | Plant response rating, Giant foxtail ([10]; Rate 500 g/ha, Postemergence) | Plant response rating, B. signalgrass ([11]; Rate 125 g/ha, Preemergence) | Plant response rating, B. signalgrass ([11]; Rate 250 g/ha, Preemergence) | Plant response rating, B. signalgrass ([11]; Rate 500 g/ha, Preemergence) | Plant response rating, Bedstraw ([12]; Rate 500 g/ha, Postemergence)
8: Plant response rating, Barnyardgrass ([2]; Rate 500 g/ha) | Plant response rating, S. Flatsedge ([3]; Rate 250 g/ha) | Plant response rating, Cocklebur ([4]; Rate 500 g/ha, Postemergence) | Plant response rating, Velvetleaf ([5]; Rate 500 g/ha, Postemergence) | Plant response rating, Redroot pigweed [7, 15] | Redroot pigweed plant response rating ([7]; Rate 62 g/ha, Postemergence) | Redroot pigweed plant response rating ([7]; Rate 125 g/ha, Postemergence) | Plant response rating, Redroot pigweed ([7]; Rate 250 g/ha, Postemergence) | Plant response rating, Giant foxtail [10, 15] | Plant response rating, Giant foxtail ([10]; Rate 250 g/ha, Postemergence) | Plant response rating, Bedstraw ([12]; Rate 250 g/ha, Postemergence) | Plant response rating, Bedstraw ([12]; Rate 500 g/ha, Preemergence)
5: Plant response rating, Barnyardgrass ([2]; Rate 250 g/ha) | Plant response rating, Rape (rape (Brassica napus); [15]) | Plant response rating, Wheat ([8]; Rate 500 g/ha, Preemergence)
10: Plant response rating, Rape (rape (Brassica napus); Rate 500 g/ha, Preemergence) | Plant response rating, Velvetleaf ([5]; Rate 500 g/ha, Preemergence) | Plant response rating, Morningglory ([6]; Rate 250 g/ha, Postemergence) | Plant response rating, Morningglory ([6]; Rate 250 g/ha, Preemergence) | Plant response rating, Morningglory ([6]; Rate 500 g/ha, Postemergence) | Plant response rating, Morningglory ([6]; Rate 500 g/ha, Preemergence) | Plant response rating, Redroot pigweed ([7]; Rate 125 g/ha, Preemergence) | Plant response rating, Redroot pigweed ([7]; Rate 250 g/ha, Preemergence) | Plant response rating, Redroot pigweed ([7]; Rate 500 g/ha, Preemergence) | Plant response rating, Sugarbeets [9, 15] | Plant response rating, Sugarbeets ([9]; Rate 125 g/ha, Preemergence) | Plant response rating, Sugarbeets ([9]; Rate 250 g/ha, Preemergence) | Plant response rating, Sugarbeets ([9]; Rate 500 g/ha, Preemergence) | Plant response rating, Giant foxtail ([10]; Rate 125 g/ha, Preemergence) | Plant response rating, Giant foxtail ([10]; Rate 250 g/ha, Preemergence) | Plant response rating, Giant foxtail ([10]; Rate 500 g/ha, Preemergence)
1: Corn plant response rating (corn (Zea mays); Rate 62 g/ha, Postemergence) | Plant response rating, Corn (corn (Zea mays); Rate 125 g/ha, Preemergence) | Plant response rating, Corn (corn (Zea mays); Rate 250 g/ha, Preemergence) | Plant response rating, Wheat [8, 15] | Wheat plant response rating ([8]; Rate 62 g/ha, Postemergence)
0: Plant response rating, Cocklebur [4, 15] | Plant response rating, Corn (corn (Zea mays); [15])
